Starred links: 1 amine or outer side, 2 acyl side, 3 side chain; linkers in the order of their positions; H or OH if unused. Residues, ends and D or L forms follow the SMILES beside them. CO = O=C([*:1])[*:2]
Key:
[1] = tested on: protease of hake flesh with jellied condition; assay: Inhibition of protease in aqueous extract of hake meat with jellied condition (urea-denatured hemoglobin substrate, Folin method); format: biochemical
Description: North Pacific hake (Merluccius products) on which the sporosa were parasitic was minced and homogenized with two volumes of water. After standing for 2 hours, the homogenate was centrifuged (15,000 xg, 20 minutes) under cooling condition, and the supernatant was dialyzed against tap water for 24 hours. The residual liquid remaining after the dialysis was heated at 50° C. for 20 minutes. The resulting precipitate was removed under cooling by centrifuge (15,000 xg, 30 minutes). The supernatant liquid was designated an aqueous extract of fish meat with jellied condition.
Separately, 3 ml of Mclvaine buffer solution (pH=3) was added to 1 ml of urea-denatured bovine hemoglobin (at a concentration of 4%) to prepare a substrate solution. 1 ml of a 1:1 mixture of the above obtained extract and a solution of various TPI was added to the above prepared substrate solution. The resulting mixture was incubated at 40° C. for 5 minutes. Thereafter, 5 ml of a 5% trichloroacetic acid was added to the mixture to allow the reaction to stop. The reaction mixture was left to stand for 30 minutes at room temperature. Then, the mixture was filtered through a filter paper (Toyo filter paper No. 5C). 1 ml of the filtrate was colorometrically determined at a wave length of 660 mμ by a Folin method.
The protease inhibition ratio of various proteolytic activity of the TPI is expressed as the […] relative activity with respect to 100 of the activity of an extract prepared by adding water instead of the TPI solution. That is, [formula]

[2] = tested on: proteolytic enzyme of yellowfin sole meat with jellied condition; assay: Proteolytic enzyme activity of treated fish meat, yellowfin sole; format: biochemical, yellowfin sole (Limanda aspera)
Text: (§1) The quantity of the TPI added generally also depends upon the concentration of a proteolytic enzyme of fish meat contaminated with sporozoa. For example, North Pacific hake on which sporozoa are parasitic has a proteolytic enzyme activity of from a low level up to 30,000 units.
One hundred North Pacific frozen yellowfin sole containing a large number of spots of jellied condition in their muscles were thawed. These flatfish were gutted and the abdominal pores were washed.
During the dipping, the flatfish were irradiated with supersonic waves having a frequency of 18 KC for 10 minutes by using the same magnetostriction type supersonic wave oscillator as described in Example 2. Thereafter, the flatfish were drained. Then, these fish were dried at 15° C. in a low temperature dryer dehydromaster to obtain dried flatfish with salt.
350 Kg of the flatfish was headed and gutted and the meat was collected by means of a fish meat separator. […] As described in Example 9, this fish meat was twice soaked in cold water in a quantity two times that of the meat and drained to obtain 130 Kg of hydroextracted meat.
A solution of 0.6 g of antipain in 1 l of water was added to 60 Kg of each sample of the hydroextracted meat and the mixture was uniformly mixed. 10 Kg of the mixture was packed in a polyethylene bag to obtain a raw kneaded meat. A control was prepared in the same manner except that 1 l of water alone was added.
These raw kneaded meats were stored in a refrigerator at a temperature of from 4° to 5° C. for 24 hours. Thereafter, these meats were removed from the refrigerator. Then, 1.5 Kg of sodium chloride, 2.5 Kg of sugar, 4.0 Kg of starch, 1.2 Kg of mirin (sweet sake) and 0.5 Kg of sodium glutamate were added to 50 Kg of each of the raw kneaded meats, and the mixture was ground and formed into "itatuki-kamaboko" according to a conventional method.

[3] = tested on: proteolytic enzyme of Pacific hake meat with jellied condition; assay: Proteolytic enzyme activity of treated fish meat, Pacific hake; format: biochemical; settings: Example 11; soaked 10 minutes in 200 l cold water with 100 g sodium hydrogensulfite; control 3,200 units
Text: as §1
The resulting fish was subjected to a fillet making machine to obtain skinless fillets. […] Each fillet sample was washed with water containing 0.05% of sodium sulfite. […]
Then, fish meat was collected from the thawed hake by means of a fish meat separator. […] The fish meat was soaked in cold water in a quantity two times that of the meat and drained, and it was again soaked in cold water in the same quantity and drained to obtain 105 Kg of hydroextracted meat. […]
The frozen testing and control kneaded meats thus obtained were thawed and subjected to a model estimation method of elasticity. In testing the elasticity, the kneaded meats are usually formed into a model product of a Japanese style fish meat paste and the model product is evaluated for quality.
200 Kg of the frozen fillet of the same Pacific hake as that described in Example 9 was thawed. […] Then, the fish meat was soaked in cold water in a quantity two times that of the meat and drained. […] The first portion was soaked in cold water in a quantity two times that of the meat and drained to obtain 50 Kg of hydroextracted meat as a control. […]

[4] = concentration 0.01%, 40° C., 5 minutes, pH 3
[5] = concentration 0.002%, 40° C., 5 minutes, pH 3
[6] = aqueous fish meat extract, pH 3, 5 min
[7] = concentration 0.02%, 40° C., 5 minutes, pH 3

Molecule: N.O.O.O.O.O.O.O.O.O.O.O.O.O=S(=O)([O-])O.O=S(=O)([O-])[O-].[Al+3] [ammonium alum]
- inhibition ratio (%) [1, 4]: 89.8%

Molecule: N.N.O=S(=O)(O)OOS(=O)(=O)O [ammonium persulfate]
- inhibition ratio (%) ([1]; concentration 0.015%, 40° C., 5 minutes, pH 3): 91.7%

Molecule: CC(C)[C@H](NC(=O)[C@H](CCCNC(=N)N)NC(=O)N[C@@H](Cc1ccccc1)C(=O)O)C(=O)N[C@H](C=O)CCCNC(=N)N [antipain] ({Phe-CO}-Arg-Val-Arg-aldehyde)
- proteolytic enzyme activity of raw kneaded meat ([2]; Example 12, 0.6 g antipain in 1 l water per 60 Kg hydroextracted meat, control 1,140 units): 980 units
- proteolytic enzyme activity of ground meat ([2]; Example 12, after 24 hours at 4° to 5° C. and grinding with salt, sugar, starch, control 1,080 units): 23 units
- inhibition ratio (%) [1, 5]: 72.9%

Molecule: O=C(OOC(=O)c1ccccc1)c1ccccc1 [benzoyl peroxide]
- inhibition ratio (%) [1, 4]: 82.3%

Molecule: [Ca+2].[O-]Cl.[O-]Cl [calcium hypochlorite]
- inhibition ratio (%) [1, 4]: 98.1%

Molecule: [O]=[Ca] [calcium oxide]
- inhibition ratio (%) [1, 4]: 100.0%

Molecule: [O][Cl+][O-] [chlorine dioxide]
- inhibition ratio (%) [1, 4]: 100.0%

Molecule: OO [hydrogen peroxide]
- inhibition ratio (%) ([1]; concentration 0.001%, 40° C., 5 minutes, pH 3): 86.8%
- inhibition ratio (%) [1, 4]: 100.0%

Molecule: OCl [hypochlorous acid]
- inhibition ratio (%) [1, 4]: 88.5%

Molecule: CC(=O)N[C@@H](CC(C)C)C(=O)N[C@@H](CC(C)C)C(=O)N[C@H](C=O)CCCNC(=N)N [leupeptin, reference compound]
- inhibition ratio (%) [1, 5]: 99.0%

Molecule: [K+].[K+].[O]=[Cr](=[O])([O-])[O][Cr](=[O])(=[O])[O-] [potassium dichromate, reference compound]
- inhibition of the activity of the protease produced by the sporozoa (in words) [1]: high inhibition
- inhibition ratio (%) [1, 6]: 96.1%

Molecule: O=[N+]([O-])[O-].[K+] [potassium nitrate, reference compound]
- inhibition ratio (%) [1, 4]: -1.4%

Molecule: O=S([O-])O.[Na+] [sodium hydrogen sulfite]
- inhibition ratio (%) [1, 7]: 96.1%
- proteolytic enzyme activity of hydroextracted meat [3]: 840 units

Molecule: OCl [sodium hypochlorite]
- inhibition ratio (%) [1, 4]: 87.8%

Molecule: O=S([O-])S(=O)(=O)[O-].[Na+].[Na+] [sodium metabisulfite]
- inhibition ratio (%) ([1]; concentration 0.05%, 40° C., 5 minutes, pH 3): 96.2%

Molecule: O=NO [sodium nitrite]
- inhibition ratio (%) [1, 6]: 90.2%

Molecule: O=S([O-])[O-].[Na+].[Na+] [sodium sulfite]
- inhibition ratio (%) [1, 7]: 93.4%

Molecule: chymostatin [reference compound]
- proteolytic enzyme activity of dried flatfish with salt whose muscle was softened and partially depressed ([2]; Example 7, dipped 2 hours in 10% sodium chloride containing 0.01% chymostatin, supersonic waves 18 KC 10 minutes, muscles had 5,000 units before): 120 units
- inhibition ratio (%) [1, 5]: 97.0%

Molecule: sodium chlorite
- inhibition ratio (%) [1, 4]: 100.0%

From US4284653A, “Process for handling and processing fish meat” (Nippon Suisan Kabushiki Kaisha, priority 1979, dated 1981)
